Test results reported in patent US20250179103A1, “6-OXODECAHYDROPYRROLO[1,2-A][1,5]DIAZOCINE AND 6-OXODECAHYDRO-4H-PYRROLO[2,1-D][1,5]THIAZOCINE DERIVATIVES AS STAT3 AND STAT6 MODULATORS FOR THE TREATMENT OF CANCER AND INFLAMMATORY CONDITIONS” (Recludix Pharma, Inc., priority 2022, published 2025).
pIC50: −log10 of the molar value.

How the values were obtained:
[1] = system: pY641-STAT6 in Peripheral Blood Mononuclear Cells (PBMC); assay: MSD-pSTAT-PBMC Assay (pSTAT6, IL-4 stimulated); assay type: cell-based, Human; details: Homo sapiens, compound 3 hrs, then 1 ng/mL IL-4 for 10 min
Summary of the method: (§1)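 Phospho-STAT readout used MSD electrochemiluminescence with total STAT3 or STAT6 capture in lysates of cryopreserved human PBMCs. Cells had 3 h compound exposure before a 10 min cytokine pulse: IL-6 10 ng/mL for pSTAT3, IL-4 1 ng/mL for pSTAT6. IC50 came from background-subtracted, DMSO-normalised signal, with categories A≤100 nM up to D>3 μM.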

[2] = system: pY705-STAT3 in Peripheral Blood Mononuclear Cells (PBMC); assay: MSD-pSTAT-PBMC Assay (pSTAT3, IL-6 stimulated); assay type: cell-based, Human; details: Homo sapiens, compound 3 hrs, then 10 ng/mL IL-6 for 10 min
Summary of the method: as §1

`CC(=O)N1CC[C@H]2CC[C@@H](C(=O)NC3CCN(S(C)(=O)=O)CC3)N2C(=O)[C@@H](NC(=O)c2cc3cc(C(F)(F)P(=O)(OCOC(=O)C(C)(C)C)OCOC(=O)C(C)(C)C)ccc3s2)C1` [Compound 313, ((((2-(((5S, 8S,10aR)-3-acetyl-8-((1-(methyl-sulfonyl)piperidin-4-yl)carbamoyl)-6-oxodecahydro-pyrrolo[1,2-a][1,5]diazocin-5-yl)carbamoyl)benzo[b]thiophen-5-yl)difluoro-methyl)phos-phoryl)bis(oxy)) bis(methylene) bis(2,2-dimethylpro-panoate)] was tested. Which pIC50 [1] did it give?
The pIC50 was 5.52 to 6.00.

And the pIC50 [2]?
Its pIC50 is less than 5.52.

Which results are given for `CC(=O)N1CC[C@H]2CC[C@@H](C(=O)N3C[C@H](c4ccccc4)[C@@H](C#N)C3)N2C(=O)[C@@H](NC(=O)c2ccc3ccc(C(F)(F)P(=O)(OCOC(=O)C(C)(C)C)OCOC(=O)C(C)(C)C)cc3c2)C1` (mixture of isomers) [Compound 323, ((((7-(((5S,8S, 10aR)-3-acetyl-8-((rel- trans)-3-cyano-4-phenyl-pyrrolidine-1-carbonyl)-6-oxodecahydro-pyrrolo[1,2-a][1,5]diazocin-5-yl)carbamoyl)naphthalen-2-yl)difluoro-methyl)phos-phoryl)bis(oxy)) bis(methylene) bis(2,2-dimethylpro-panoate)]?
pIC50 [1]: ≥ 7.00; pIC50 [2]: 5.52 to 6.00

How did the pIC50 [1] turn out when `CC(=O)N1CC[C@H]2CC[C@@H](C(=O)N(C)c3ccc(OCCN(C)C)cc3)N2C(=O)[C@@H](NC(=O)c2cc3cc(C(F)(F)P(=O)(OCOC(=O)C(C)(C)C)OCOC(=O)C(C)(C)C)ccc3s2)C1` [Compound 327, ((((2-(((5S,8S, 10aR)-3-acetyl-8-((4-(2-(dimethyl-amino)ethoxy)phenyl) (methyl)carbamoyl)-6-oxodecahydro-pyrrolo[1,2-a][1,5]diazocin-5-yl)carbamoyl)benzo[b]thiophen-5-yl)difluoro-methyl)phos-phoryl)bis(oxy)) bis(methylene) bis(2,2-dimethylpro-panoate)] was run?
Its pIC50 is less than 5.52.

And the pIC50 [2]?
The pIC50 was less than 5.52.

`CC(C)(C)C(=O)SCCOP(=O)(OCCSC(=O)C(C)(C)C)C(F)(F)c1ccc2ccc(C(=O)N[C@H]3CN(CC(F)F)CC[C@H]4CC[C@@H](C(=O)N5CC[C@H](c6ccccc6)[C@@H](C#N)C5)N4C3=O)cc2c1` (relative stereo) [Compound 340, S,S′-(((((7-(((5S,8S,10aR)-8-((rel-trans)-3-cyano-4-phenylpiperidine-1-carbonyl)-3-(2,2-difluoroethyl)-6-oxodecahydropyrrolo[1,2-a][1,5]diazocin-5-yl)carbamoyl)naphthalen-2-yl)difluoromethyl)phosphoryl)bis(oxy))bis (ethane-2,1-diyl))bis(2,2-dimethylpropanethioate)] was tested. Which pIC50 [1] did it give?
The pIC50 was less than 5.52.

And the pIC50 [2]?
Its pIC50 is less than 5.52.

`CCOP(=O)(OCC)C(F)(F)c1ccc2sc(C(=O)N[C@H]3CN(C(C)=O)CC[C@H]4CC[C@@H](C(=O)N(C)c5ccccc5)N4C3=O)cc2c1` [Compound 317, diethyl ((2-(((5S,8S, 10aR)-3-acetyl-8-(methyl (phenyl)carbamoyl)-6-oxodecahydro-pyrrolo[1,2-a][1,5]diazocin-5-yl)carbamoyl)benzo[b]thiophen-5-yl)difluoro-methyl)phos-phonate] was tested. Which pIC50 [1] did it give?
Its pIC50 is less than 5.52.

What about the pIC50 [2] of the same compound?
The pIC50 was less than 5.52.
